From EP1147080B1 (Wyeth Holdings Corporation, priority 1999, dated 2000)

Columns and labels:
[1] = test system: THP-1 cells; experiment: Human monocytic THP-1 cell differentiation assay for soluble proteins (THP soluble protein assay), LPS-stimulated, TNF-α ELISA; type: cell-based; conditions: Homo sapiens, THP-1; at 3 uM; percent change from vehicle positive control; read-out: TNFalpha at 3 uM) THP (percent change)
From the text: Mitogenic stimulation of THP-1 cells cause differentiation into macrophage like cells with concomitant secretion of tumor necrosis factor (TNF-a) and TNF receptor (TNF-R p75/80 and TNF-R p55/60) and Interleukin-8 (IL-8), among other proteins. In addition, non-stimulated THP-1 cells shed both the p75/80 and the p55/60 receptors over time. The release of membrane bound TNF-a and possibly TNF-R p75/80 and TNF-R p55/60, but not IL-8, is mediated by an enzyme called TNF-α converting enzyme or TACE.
THP-1 cells (from ATCC) are a human monocytic cell line which were obtained from the peripheral blood of a person with acute monocytic leukemia. They can be grown in culture and differentiated into macrophage like cells by stimulation with mitogens.
Each vial of cells are cultured for about two weeks prior to being used for an assay and then are used for only 4 to 6 weeks to screen compounds.
Cell exposure to DMSO was limited to 0.1 % final concentration. […] Compounds can be evaluated for their effect on basal (non-stimulated) shedding of the receptors by replacing the LPS with […] of THP-1 media. Plates are placed into an incubator set at 5% CO2 and at 37°C. After 4 hours of incubation, […] of tissue culture supernatant (TCS) is removed for use in an TNF-α ELISA. Following 24 hours of incubation, […] of TCS is removed and used for analysis in TNF-R p75/80, TNF-R p55/60 and IL-8 ELISAs.
In addition, at the 24 hours timepoint, and the cells for each treatment group are collected by resuspension in 500 µl/well of THP-1 media and transferred into a FACS tube. […] The samples are run on a Becton Dickinson FaxCaliber FLOW cytometry machine and the amount of dye taken up by each cell is measured in the high red wavelength (FL3). Only cells with compromised membranes (dead or dying) can take up PI. The percent of live cells is calculated by the number of cells not stained with PI, divided by the total number of cells in the sample. The viability values calculated for the drug treated groups were compared to the viability value calculated for the vehicle treated mitogen stimulated group ("vehicle positive control") to determine the "percent change from control". This "percent change from control" value is an indicator of drug toxicity.
The quantity of soluble TNF-α, TNF-R p75/80 and TNF-R p55/60 and IL-8 in the TCS of the THP-1 cell cultures are obtained with commercially available ELISAs from R&D Systems, by extrapolation from a standard curve generated with kit standards. The number of cells that either take up or exclude PI are measured by the FLOW cytometry machine and visualized by histograms using commercially available Cytologic software for each treatment group including all controls.
Biological variability in the magnitude of the response of THP-1 cell cultures requires that experiments be compared on the basis of percent change from "vehicle positive control" for each drug concentration. Percent change in each soluble protein evaluated from the "vehicle positive control" was calculated for each compound concentration with the following formula: % Change =(pg/ml (compound) - pg/ml (veh pos control))/(pg/ml (veh pos control) - pg/ml (veh neg control))x 100 [formula]
For the soluble protein (TNF-a, p75/80, p55/60, IL-8) studies under stimulated conditions, the mean pg/ml of duplicate wells were determined and the results expressed as percent change from "vehicle positive control". For the soluble protein (p75/80 and p55/60 receptors) studies under non-stimulated conditions, the mean pg/ml of duplicate wells were determined and the results expressed as percent change from […] utilizing the following formula: % Change =(pg/ml (compound neg control) - pg/ml (veh neg control))/(pg/ml (veh neg control))X 100 [formula]
IC50 values for each compound are calculated by non-linear regression analysis using customized software utilizing the JUMP statistical package.

[2] = biological target: T1, MMP-1 (Homo sapiens, UniProt P03956); experiment: MMP-1 inhibition (thiopeptide or fluorescent peptide substrate); conditions: read-out: MMP1
T1 sequence (P03956 100-469): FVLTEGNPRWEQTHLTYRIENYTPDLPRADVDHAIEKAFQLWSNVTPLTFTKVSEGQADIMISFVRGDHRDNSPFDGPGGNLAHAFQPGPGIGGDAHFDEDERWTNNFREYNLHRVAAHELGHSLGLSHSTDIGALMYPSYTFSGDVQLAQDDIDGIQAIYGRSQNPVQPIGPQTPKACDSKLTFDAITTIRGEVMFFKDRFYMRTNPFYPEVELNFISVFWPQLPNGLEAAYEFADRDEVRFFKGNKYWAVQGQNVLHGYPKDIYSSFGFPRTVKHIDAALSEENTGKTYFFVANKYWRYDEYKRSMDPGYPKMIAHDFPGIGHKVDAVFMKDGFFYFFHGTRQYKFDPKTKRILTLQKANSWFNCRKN
Protocol: The enzyme activity is measured by the rate of the color increase. The thiopeptide substrate is made up fresh as a 20 mM stock in 100% DMSO and the DTNB is dissolved in 100% DMSO as a 100 mM stock and stored in the dark at room temperature. Both the substrate and DTNB are diluted together to 1 mM with substrate buffer (50 mM HEPES pH 7.5, 5 mM CaCl2) before use. The stock of enzyme is diluted with buffer (50 mM HEPES, pH 7.5, 5 mM CaCl2, 0.02% Brij) to the desired final concentration.
Alternatively, a fluorescent peptide substrate is used. In this test procedure, the peptide substrate contains a fluorescent group and a quenching group. Upon cleavage of the substrate by an MMP, the fluorescence that is generated is quantitated on the fluorescence plate reader. The assay is run in HCBC assay buffer (50mM HEPES, pH 7.0, 5 mM Ca^+2, 0.02% Brij, 0.5% Cysteine), with human recombinant MMP-1, MMP-9, or MMP-13. The substrate is dissolved in methanol and stored frozen in 1 mM aliquots. For the assay, substrate and enzymes are diluted in HCBC buffer to the desired concentrations. Compounds are added to the 96 well plate containing enzyme and the reaction is started by the addition of substrate.
For either the thiopeptide or fluorescent peptide test procedures, the slope of the line is calculated and represents the reaction rate. […] The mean (x±sem) of the control rate is calculated and compared for statistical significance (p<0.05) with drug-treated rates using Dunnett's multiple comparison test.

[3] = biological target: TNF-α converting enzyme (TACE) (Homo sapiens, UniProt P78536); experiment: Test procedure for measuring TACE inhibition (fluorescent peptidyl substrate); type: biochemical; conditions: for IC50: second table; for inhibition at 10 µM: % @ 10µM per footnote a, read-out: TACE IC50
[4] = biological target: MMP-13 (Homo sapiens, UniProt P45452); experiment: MMP-13 inhibition (thiopeptide or fluorescent peptide substrate); type: biochemical; conditions: read-out: MMP13; for inhibition at 10 µM: % @ 10µM per footnote a; for inhibition at 1 µM: % at 1 um (specified in cell)
From the text: Alternatively, a fluorescent peptide substrate is used.

TNF-α converting enzyme (TACE), sequence (P78536 215-824): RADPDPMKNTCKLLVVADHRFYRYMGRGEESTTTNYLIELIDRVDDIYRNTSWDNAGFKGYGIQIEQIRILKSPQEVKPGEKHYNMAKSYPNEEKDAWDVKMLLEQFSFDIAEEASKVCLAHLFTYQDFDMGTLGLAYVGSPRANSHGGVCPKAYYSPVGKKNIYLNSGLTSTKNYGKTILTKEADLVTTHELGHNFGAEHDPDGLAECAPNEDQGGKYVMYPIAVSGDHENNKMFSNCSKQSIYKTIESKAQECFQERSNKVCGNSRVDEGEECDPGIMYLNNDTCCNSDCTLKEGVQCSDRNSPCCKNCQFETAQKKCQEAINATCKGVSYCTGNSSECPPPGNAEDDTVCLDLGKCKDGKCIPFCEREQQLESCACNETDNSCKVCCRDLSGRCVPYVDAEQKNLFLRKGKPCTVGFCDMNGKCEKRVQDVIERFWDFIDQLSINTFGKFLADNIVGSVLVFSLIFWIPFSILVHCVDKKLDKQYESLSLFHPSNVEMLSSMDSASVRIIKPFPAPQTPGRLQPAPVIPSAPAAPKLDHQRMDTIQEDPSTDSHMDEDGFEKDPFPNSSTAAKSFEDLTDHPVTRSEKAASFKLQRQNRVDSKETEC

CC#CCOc1ccc(S(=O)(=O)C(C(=O)NO)C2CCN(C(=O)OC(C)(C)C)CC2)cc1 (stereo not shown) [Example 117, Tert-butyl-4-[1-{[4-(2-butynyloxy)phenyl]sulfonyl}-2-(hydroxyamino)-2-oxoethyl]-1-piperidine carboxylate]
inhibition at 3 µM [1]: 50%
inhibition at 10 µM [2]: 22%
IC50 ([3]; IC50 (nM) per footnote a): 190 nM
inhibition at 10 µM [4]: 52%

CC#CCOc1ccc([S+]([O-])C(C(=O)NO)c2ccc(Cl)cc2)cc1 (mixture of isomers) [Example 81, 2-{[4-(2-butynyloxy)phenyl]sulfinyl}-2-(4-chlorophenyl) N-hydroxyacetamide]
inhibition at 3 µM [1]: 6%
inhibition at 10 µM [2]: 30.5%
IC50 ([3]; IC50 (nM) per footnote a): 223 nM
inhibition at 1 µM [4]: 21.6%

CC#CCOc1ccc(S(=O)(=O)C(C(=O)NO)C2CCN(Cc3ccc(OC)cc3)CC2)cc1 (stereo not shown) [Example 119, 2-{[4-(2-butynyloxy)phenyl]sulfonyl}-N-hydroxy-2-[1-(4-methoxybenzyl)-4-piperidinyl] acetamide]
inhibition at 3 µM [1]: 30%
inhibition at 10 µM [2]: 9%
IC50 ([3]; IC50 (nM) per footnote a): 263 nM
inhibition at 10 µM [4]: 50%

CC#CCOc1ccc(S(=O)(=O)C(C(=O)NO)c2cccc3ccccc23)cc1 (stereo not shown) [Example 94, 2-{[4-(2-Butynyloxy)phenyl]sulfonyl}-N-hydroxy-2-(1-naphthyl)acetamide]
inhibition at 3 µM [1]: -11%
inhibition at 10 µM [2]: 8%
IC50 ([3]; IC50 (nM) per footnote a): 423 nM
inhibition at 10 µM [4]: 34%

CC#CCOc1ccc([S+]([O-])[C@H](C(=O)NO)c2ccc(Br)cc2)cc1 (single isomer, unassigned) [Example 86]
inhibition at 3 µM [1]: -2%
inhibition at 10 µM [2]: 24%
IC50 ([3]; IC50 (nM) per footnote a): 60 nM
inhibition at 10 µM [4]: 51%

CC#CCOc1ccc(S(=O)(=O)C(C(=O)NO)c2ccc3ccccc3c2)cc1 (stereo not shown) [Example 116, 2-{[4-(2-butynyloxy)phenyl]sulfonyl}-2-(2-naphthyl)-N-hydroxyacetamide]
inhibition at 3 µM [1]: 7%
inhibition at 10 µM [2]: 5.6%
IC50 ([3]; IC50 (nM) per footnote a): 495 nM
inhibition at 1 µM [4]: 33.6%

CC#CCOc1ccc(S(=O)(=O)C(C(=O)NO)C2CCN(C(=O)c3ccccc3)CC2)cc1 (stereo not shown) [Example 120, 2-(1-benzoyl-4-piperidinyl)-2-{[4-(2-butynyloxy)phenyl]sulfonyl}-N-hydroxyacetamide]
inhibition at 3 µM [1]: 63%
inhibition at 10 µM [2]: 24%
IC50 ([3]; IC50 (nM) per footnote a): 88.5 nM
inhibition at 1 µM [4]: 51%

CC#CCOc1ccc(S(=O)(=O)C(C(=O)NO)c2ccc(Br)cc2)cc1 (stereo not shown) [Example 88, 2-(4-bromophenyl)-2-{[4-(2-butynyloxy)phenyl]sulfonyl}-N-hydroxyacetamide]
inhibition at 3 µM [1]: 4%
inhibition at 10 µM [2]: 20%
IC50 ([3]; IC50 (nM) per footnote a): 226 nM
inhibition at 1 µM [4]: 21%

CC#CCOc1ccc(S(=O)(=O)C(C(=O)NO)c2ccc(OCC)cc2)cc1 (stereo not shown) [Example 102]
inhibition at 3 µM [1]: 10%
inhibition at 10 µM [2]: 26%
IC50 ([3]; IC50 (nM) per footnote a): 82 nM
inhibition at 10 µM [4]: 71%

CC#CCOc1ccc([S+]([O-])C(C(=O)NO)c2ccccc2OC)cc1 (stereo not shown) [Example 99, 2-(2-methoxyphenyl)-2-{[4-(2-butynyloxy)phenyl]sulfinyl}-N-hydroxyacetamide]
inhibition at 3 µM [1]: 1%
inhibition at 10 µM [2]: 0%
IC50 [3]: 1100 nM
inhibition at 10 µM [4]: 33.6%

CC#CCOc1ccc(SC(C(=O)NO)c2ccccc2OC)cc1 (stereo not shown) [Example 98, 2-(2-methoxyphenyl)-2-{[4-(2-butynyloxy)phenyl]sulfanyl}-N-hydroxyacetamide]
inhibition at 3 µM [1]: 1%
inhibition at 10 µM [2]: 23%
IC50 ([3]; IC50 (nM) per footnote a): 464 nM
inhibition at 10 µM [4]: 59%

CC#CCOc1ccc([S+]([O-])C(C(=O)NO)c2ccc3ccccc3c2)cc1 (stereo not shown) [Example 115, 2-{[4-(2-butynyloxy)phenyl]sulfinyl}-2-(2-naphthyl)-N-hydroxyacetamide]
inhibition at 3 µM [1]: 11%
inhibition at 10 µM [2]: 4.11%
IC50 ([3]; IC50 (nM) per footnote a): 141 nM
inhibition at 1 µM [4]: 45.1%

CC#CCOc1ccc(S(=O)(=O)C(C(=O)NO)c2cccc(Cl)c2)cc1 (stereo not shown) [Example 84, 2-{[4-(2-butynyloxy)phenyl]sulfonyl}-2-(3-chlorophenyl)-N-hydroxyacetamide]
inhibition at 3 µM [1]: -7%
inhibition at 10 µM [2]: 10%
inhibition at 1 µM [4]: 23%

CC#CCOc1ccc(S(=O)(=O)C(C(=O)NO)c2cccc(Br)c2)cc1 (stereo not shown) [Example 106, 2-{[4-(2-Butynyloxy)phenyl]sulfonyl}-2-(3-bromophenyl)-N-hydroxyacetamide]
inhibition at 3 µM [1]: -5%
inhibition at 10 µM [2]: 0%
IC50 ([3]; IC50 (nM) per footnote a): 65 nM
inhibition at 10 µM [4]: 56%

CC#CCOc1ccc(SC(C(=O)NO)c2ccc(Br)cc2)cc1 (stereo not shown) [Example 85, 2-(4-bromophenyl)-2-{[4-(2-butynyloxy)phenyl]sulfanyl}-N-hydroxyacetamide]
inhibition at 3 µM [1]: -10%
inhibition at 10 µM [2]: 6.8%
IC50 ([3]; IC50 (nM) per footnote a): 391 nM
inhibition at 10 µM [4]: 30.5%

CC#CCOc1ccc(S(=O)(=O)C(C(=O)NO)c2ccc(-c3cccs3)cc2)cc1 (stereo not shown) [Example 91, 2-{[4-(2-butynyloxy)phenyl]sulfonyl}-N-hydroxy-2-[4-(2-thienyl)phenyl]acetamide]
inhibition at 3 µM [1]: 2%
inhibition at 10 µM [2]: 10%
inhibition at 10 µM [3]: 48%
inhibition at 10 µM [4]: 35%

CC#CCOc1ccc([S+]([O-])[C@H](C(=O)NO)c2cccc(Br)c2)cc1 (single isomer, unassigned) [Example 105]
inhibition at 3 µM [1]: -4%
inhibition at 10 µM [2]: 9%
IC50 ([3]; IC50 (nM) per footnote a): 106 nM
inhibition at 10 µM [4]: 32%

CC#CCOc1ccc(SC(C(=O)NO)c2ccc(-c3cccs3)cc2)cc1 (stereo not shown) [Example 89, 2{[4-(2-butynyloxy)phenyl]sulfanyl}-N-hydroxy-2-[4-(2-thienyl)phenyl]acetamide]
inhibition at 3 µM [1]: 2%
inhibition at 10 µM [2]: 0%
IC50 ([3]; IC50 (nM) per footnote a): 617 nM
inhibition at 10 µM [4]: 5%

CC#CCOc1ccc(SC(C(=O)NO)c2ccc3ccccc3c2)cc1 (stereo not shown) [Example 114, 2-{[4-(2-Butynyloxy)phenyl]sulfanyl}-2-(2-naphthyl)-N-hydroxyacetamide]
inhibition at 3 µM [1]: 12%
inhibition at 10 µM [2]: 3.5%
inhibition at 10 µM [3]: 40.9%
inhibition at 10 µM [4]: 30.5%

CC#CCOc1ccc([S+]([O-])[C@@H](C(=O)NO)c2ccc(-c3cccs3)cc2)cc1 (stereo partly drawn) [Example 90, (2R)-2-{[4-(2-butynyloxy)phenyl]sulfinyl}-N-hydroxy-2-[4-(2-thienyl)phenyl] ethanamide]
inhibition at 3 µM [1]: 1%
inhibition at 10 µM [2]: 7%
inhibition at 1 µM [4]: 16%

CC#CCOc1ccc([S+]([O-])[C@@H](C(=O)NO)c2cccc(Br)c2)cc1 (single isomer, unassigned) [Example 104]
inhibition at 3 µM [1]: 4%
inhibition at 10 µM [2]: 6%
IC50 ([3]; IC50 (nM) per footnote a): 63 nM
inhibition at 10 µM [4]: 54%
